Molecules are shown by their SMILES. Entries after “also recorded” stand apart in the source; their conditions may differ. Where a name gives a salt, the structure may show the parent alone.

One test concerns Dp35. Put plainly: Dp35 cleavage in HA-tagged Dp35 transfected BG2-c2 cells (anti-HA immunoblot). The test is classed as cell-based, Drosophila melanogaster. The following applies: BG2-c2 cells with HA-tagged Dp35, A23187 with 5 μM CaCl2, 24 hours. The source says:
Like Abl, p35 is conserved in Drosophila and functions to modulate Cdk5 activity during neurite outgrowth (Connell-Crowley et al., 2000, Curr. Biol. 10:599). In the AD brain, mammalian p35 is cleaved into p25 by calpain to deregulate Cdk5 (Lee et al., 2000, Nature 405:360). Although a putative calpain is also present in Drosophila (Jekely and Friedrich, 1999, J. Biol. Chem. 274:23893), the consensus calpain cleavage site is absent in Drosophila p35 (Dp35) (FIG. 5A). Therefore, it was unclear whether Dp35 would be converted into p25 upon Aβ42 stimulation. To investigate this possibility, carboxyl-terminal HA-tagged Dp35 was transfected into BG2-c2 cells before treating them with Aβ42or A23187/Ca^2+ (calcium ionophore). […] To analyze the Dp35 cleavage in vivo, transgenic flies co-expressing Dp35 and Aβ42 in the developing eyes were generated using a gmr-GAL4 driver. Consistent with the in vitro result, no visible cleavage or reduction of the Dp35 protein in the Aβ42 transgenic flies were observed (FIG. 5B, right panel).
(In general: A western blot detects proteins with antibodies after separation by electrophoresis.)

A further test relates to p35. As to the kind of experiment: Cleavage of p35 into p25 in Aβ42-treated IMR-32 cells (immunoblot). The following applies: Aβ42 (20 μM) 24 hours, STI571 pretreatment 24 hours. The test is classed as cell-based, human. As for the experimental part:
(§1) Cell lysate was produced in lysis buffer or extract buffer (Juang and Hoffmann,1999, Oncogene 18:5138) for Cdk5 immunoprecipitation. Proteins were analyzed by direct Western blotting (30 μg/lane) or blotting after immunoprecipitation (1˜2 mg/immunoprecipitation). Immunoprecipitates were collected by binding to protein G PLUS/Protein A-Agarose (Oncogene Research Products, Nottingham UK). The antibodies used are listed below: anti-Cdk5 antibody (clone DC17), (Upstate, Charlottesville, Va.); sc-750, (Santa Cruz Biotechnology, Inc., Santa Cruz Calif.), anti-Cdk5-pY15 antibody (sc-1 2919),(Santa Cruz Biotechnology, Inc., Santa Cruz C), anti-HA antibody (BAbCO, Berkely, Calif.), anti-p35 antibody (sc-820), (Santa Cruz Biotechnology, Inc., Santa Cruz Calif.), and affinity-purified Ena polyclonal antibody (generated by Dr. F. M. Hoffmann' Lab) (McArdle Laboratory for Cancer Research and Laboratory of Genetics, University of Wisconsin-Madison) ECL detection reagent (NEN, Boston, Mass.) was used to detect the immunoreactive proteins.
(§2) To determine if the role of Abl in Drosophila neurodegeneration is conserved in mammals, Abl kinase activity in Aβ42-induced mammalian neuronal apoptosis was investigated. […] Formation of p25 has been considered a causative agent that contributes to the deregulation of Cdk5 in human AD (Lee et al., 2000, Nature 405:360; Patrick et al., 1999, Nature 402:615). […]

Test [1] relates to Cdk5-pY15. As to the kind of experiment: Cdk5-pY15 in Aβ42-treated IMR-32 cells (immunoblot). The following applies: Aβ42 (20 μM) 24 hours, STI571 pretreatment 24 hours. The test is classed as cell-based, human. On the procedure:
as §1, §2

The test system of test [2] is Cdk5. Put plainly: Cdk5 kinase activity in Aβ42-treated IMR-32 cells (histone H1 kinase assay). The test is classed as cell-based, human. The following applies: Aβ42 (20 μM) 24 hours, STI571 pretreatment 24 hours. On the procedure:
(§3) A kinase assay was performed by washing immunoprecipitates three times with kinase reaction buffer (50 mM HEPES [pH 7.0], 10 mM MgCl2, and 1 mM DTT). The beads with target proteins were incubated with kinase reaction buffer containing 2 μg of substrate (histone H1)(Calbiochem, San Diego, Calif.) and 10 μCi of ^33Pγ-ATP in a final volume of 40 μl at 30° C. for 30 minutes.
(§4) To determine if the role of Abl in Drosophila neurodegeneration is conserved in mammals, Abl kinase activity in Aβ42-induced mammalian neuronal apoptosis was investigated. […] Formation of p25 has been considered a causative agent that contributes to the deregulation of Cdk5 in human AD (Lee et al., 2000, Nature 405:360; Patrick et al., 1999, Nature 402:615). […] Thus, it was important to determine whether the conversion of p35 into p25 is sufficient to deregulate Cdk5 activity while Abl activation is inhibited. […] The cells were then assayed for Cdk5 kinase activity and Y-15 phosphorylation.

The subject of a further test is BG2-c2 cells. Put plainly: Modified MTT cell viability assay, Aβ42-induced neuronal death. The test is classed as cell-based, Drosophila melanogaster. The following applies: BG2-c2 cells treated with Aβ42; dsRNA transfected two days before Aβ42 for 24 hours. On the procedure:
(§5) The modified MTT assay (Sigma, St Louis, Mo.) was used to quantify neuronal cell viability (Lee et al., 2000, Nature 405:360). The intensities were measured using an optical density reader (SpectroMAXplus, Molecular Devices, Sunnyvale, Calif.) at 570 nm (background: 630 nm) and proportionally represented the viable cell numbers.

The test system of test [3] is Cdk5. As to the kind of experiment: In vitro Cdk5 kinase assay of immunoprecipitates with histone H1 as substrate, BG2-c2 cells. The following applies: for Abl kinase activity regulation, used to confirm Abl requirement for modulation of Cdk5 kinase: BG2-c2 cells, other Abl kinase regulating agents. The test is classed as cell-based, Drosophila melanogaster. As for the experimental part: as §3
Whether Cdk5 was activated in the Abl-Cdk5 complex was also investigated. Cdk5 was immunoprecipitated from the cell lysate for an vitro kinase assay, using histone H1 as a substrate (Connell-Crowley et al., 2000, Curr. Biol. 10:599). Similar to results reported for mammalian cells (Alvarez et al., 2001, Exp. Cell Res. 264:266), Drosophila Cdk5 kinase activity was elevated following Aβ42 treatment as compared to controls (FIG. 2B, bottom panel). […] Moreover, other Abl kinase regulating agents including doxorubicin (DX) and erbstatin analog (EA) were used to activate or suppress Abl kinase activity, respectively, and confirmed that Abl kinase activity was required for modulation of Cdk5 kinase.

The subject of a further test is BG2-c2 neuronal cells. Put plainly: Cdk5 subcellular translocalization by immunostaining and confocal microscopy. The following applies: 2 μM Aβ42 one hour, agent given simultaneously with or before Aβ42 (BL-1 5 μM). The test is classed as cell-based, Drosophila melanogaster.
In the next test the test system is IMR-32 cells. As to the kind of experiment: Neuronal viability, Aβ42-induced IMR-32 neuronal death. The following applies: IMR-32 cells pretreated 24 hours with STI571, then Aβ42 24 or 72 hours. The test is classed as cell-based, human. As for the experimental part: as §5, §4
Test [4] has as its system Cdk5-pY15. As to the kind of experiment: Cdk5-Y15 phosphorylation (Cdk5-pY15) immunoblot, BG2-c2 cells. The test is classed as cell-based, Drosophila melanogaster. The following applies: Aβ42 (2 μM)-treated BG2-c2 cells; STI571 20 μM 60 minutes; dsRNA 20 μg/2×10^6 cells two days before Aβ42. As for the experimental part:
To understand the role of Drosophila Cdk5 in neurodegeneration, the phosphorylation of Cdk5-Y15 was investigated to determine if it was correlated with the pathological activation of Cdk5 in neuronal cells. Cdk5-Y15 phosphorylation (Cdk5-pY15) levels in BG2-c2 cells were examined over time following treatment with 2 μM Aβ42. The presence of […] in the immunoprecipitates was shown by immunoblotting with an anti-phospho antibody specific for Cdk5-pY15. Within 60 minutes, Aβ42 caused an elevation of Cdk5-pY15, which was coincident with an increase in Cdk5 kinase activity (FIG. 4A). […] Moreover, dsRNA-abl (20 μg/2×10^6 cells) was transfected into BG2-c2 cells to reduce Abl expression two days before Aβ42 treatment.

Consider `CNc1ccc2oc(C[C@H]3O[C@@]4(CC[C@H]3C)O[C@H]([C@H](C)C(=O)c3ccc[nH]3)[C@H](C)C[C@H]4C)nc2c1C(=O)O` [A23187], for which, in the test on Dp35, the “Dp35 cleavage / Dp35 protein levels” value is recorded as “no noticeable cleavage or reduction; also recorded: no detectable cleavage or reduction”.
Consider `CCCC[C@@H](C=O)NC(=O)[C@H](CC(C)C)NC(=O)OCc1ccccc1` [Calpeptin], for which the “Cleavage of p35 into p25 (formation of p25)” value with p35 was “blockade of p35 cleavage”. For the same compound, the “Cdk5-pY15 (Y15 phosphorylation)” value with Cdk5-pY15 [1] is given as “did not diminish”. The Cdk5 kinase activity entry in the test with Cdk5 [2] is recorded as “considerably reduced”.
For the compound `Cc1ccc(NC(=O)c2ccc(CN3CCN(C)CC3)cc2)cc1Nc1nccc(-c2cccnc2)n1` [STI571, imatinib mesylate], the “Aβ42-induced neuronal death (neuronal viability, MTT)” value in the test on BG2-c2 cells is recorded as “rescued Aβ42-induced neuronal death; also recorded: suppressed”. Further, in the test on Cdk5 [3] (Aβ42 (2 μM)-treated BG2-c2 cells, STI571 20 μM 60 minutes, dsRNA 20 μg/2×10^6 cells two days before Aβ42), the “Cdk5 kinase activity (histone H1 phosphorylation)” value is reported as “sharply diminished; also recorded: reduced”. For the same compound, the “Aβ42-stimulated Cdk5 translocalization to the perinuclear cytoplasm” value in the test with BG2-c2 neuronal cells is recorded as “markedly suppressed; also recorded: no Abl or Cdk5 protein translocalization to perinuclear region”. In addition, in the test with IMR-32 cells, the “Aβ42-induced IMR-32 neuronal death (neuronal viability)” value is “rescued the neuronal death; also recorded: effectively suppressed”. In the test on Cdk5-pY15 [1], the “Cdk5-pY15 (Y15 phosphorylation)” value is on record as “abolished; also recorded: suppressed”. The “Cdk5-pY15 (Cdk5-Y15 phosphorylation)” value in the test on Cdk5-pY15 [4] was “diminished; also recorded: reduced”. Moreover, the Cdk5 kinase activity entry in the test with Cdk5 [2] is listed as “abolished; also recorded: suppressed”.
As to `COc1cccc2c1C(=O)c1c(O)c3c(c(O)c1C2=O)C[C@@](O)(C(=O)CO)C[C@@H]3O[C@H]1C[C@H](N)[C@H](O)[C@H](C)O1` [doxorubicin], the “Abl kinase activity regulation, used to confirm Abl requirement for modulation of Cdk5 kinase” value with Cdk5 [3] is “activate”.
Still for that read-out and setting: the entry for `COC(=O)C=Cc1cc(O)ccc1O` [erbstatin analog, 2,5-dihydroxymethylcinnamate] is “suppress”.

(Values after US20050043264A1, “Methods of inhibiting neurodegenerative disease” (priority 2003, published 2005).)
